Literature values in patent publication US20240016816A1, “COMBINATION THERAPY” (priority 2017, published 2024).

Key:
eyelashes = conditions: patients using ophthalmic prostaglandins
hair loss = conditions: clinical trials

| SMILES | effect on eyelashes (eyelashes) | efficacy, monotherapy comparison minoxidil vs finasteride (hair loss) |
| --- | --- | --- |
| CC(C)OC(=O)CCC/C=C\C[C@@H]1[C@@H](/C=C/[C@@H](O)COc2cccc(C(F)(F)F)c2)[C@H](O)C[C@@H]1O [travoprost] | increase in diameter, density and length of eyelashes |  |
| CC(C)OC(=O)CCC/C=C\C[C@@H]1[C@@H](CC[C@@H](O)CCc2ccccc2)[C@H](O)C[C@@H]1O [latanoprost] | increase in diameter, density and length of eyelashes |  |
| CC(C)(C)NC(=O)[C@H]1CC[C@H]2[C@@H]3CC[C@H]4NC(=O)C=C[C@]4(C)[C@H]3CC[C@]12C [finasteride] |  | the more efficacious treatment option |
| CCNC(=O)CCC/C=C\C[C@@H]1[C@@H](/C=C/[C@@H](O)CCc2ccccc2)[C@H](O)C[C@@H]1O [Bimatoprost, bimatoprost] | significantly increase eyelash length |  |
